# Assay results published in PubChem BioAssay (NCI).
#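 Tested at 5 concentrations; 48 h exposure; 96-well plates; endpoints linearly interpolated, else capped at highest concentration. GI50 marks 50% less growth. TGI: concentration producing complete growth inhibition.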
# Legend:
# Test in all cases: NCI-60 cell line screen, 48 h
# HCT-15 colon = test system: HCT-15 colon
# TK-10 renal = test system: TK-10 renal
# HOP-62 NSCLC = test system: HOP-62 NSCLC
# SF-268 CNS = test system: SF-268 CNS
# OVCAR-3 ovarian = test system: OVCAR-3 ovarian
# KM12 colon = test system: KM12 colon
# UO-31 renal = test system: UO-31 renal
# IGROV1 ovarian = test system: IGROV1 ovarian
# A498 renal = test system: A498 renal
# SF-295 CNS = test system: SF-295 CNS
# MALME-3M melanoma = test system: MALME-3M melanoma
# MDA-MB-231 breast = test system: MDA-MB-231 breast
# COLO 205 colon = test system: COLO 205 colon
# MDA-MB-435 = test system: MDA-MB-435
# SN12C renal = test system: SN12C renal
# CCRF-CEM leukemia = test system: CCRF-CEM leukemia
# HOP-92 NSCLC = test system: HOP-92 NSCLC
# SR leukemia = test system: SR leukemia
# MCF7 breast = test system: MCF7 breast
# ACHN renal = test system: ACHN renal
# OVCAR-8 ovarian = test system: OVCAR-8 ovarian
# HCC-2998 colon = test system: HCC-2998 colon
# LOX IMVI melanoma = test system: LOX IMVI melanoma
# RXF 393 renal = test system: RXF 393 renal
# NCI-H460 lung = test system: NCI-H460 lung
# NCI/ADR-RES ovarian = test system: NCI/ADR-RES ovarian
# SF-539 CNS = test system: SF-539 CNS
# NCI-H522 lung = test system: NCI-H522 lung
# UACC-62 melanoma = test system: UACC-62 melanoma
# RPMI-8226 leukemia = test system: RPMI-8226 leukemia
# OVCAR-5 ovarian = test system: OVCAR-5 ovarian
# NCI-H23 lung = test system: NCI-H23 lung
# BT-549 breast = test system: BT-549 breast
# M14 melanoma = test system: M14 melanoma
# 786-0 renal = test system: 786-0 renal
# HL-60(TB) leukemia = test system: HL-60(TB) leukemia
# SK-MEL-28 melanoma = test system: SK-MEL-28 melanoma
# SK-MEL-5 melanoma = test system: SK-MEL-5 melanoma
# HS 578T breast = test system: HS 578T breast
# SNB-19 CNS = test system: SNB-19 CNS
# A549 NSCLC = test system: A549 NSCLC
# NCI-H226 lung = test system: NCI-H226 lung
# HCT-116 colon = test system: HCT-116 colon
# HT29 colon = test system: HT29 colon
# PC-3 prostate = test system: PC-3 prostate
# U251 CNS = test system: U251 CNS
# CAKI-1 renal = test system: CAKI-1 renal
# SK-OV-3 ovarian = test system: SK-OV-3 ovarian
# UACC-257 melanoma = test system: UACC-257 melanoma
# DU-145 prostate = test system: DU-145 prostate
# MOLT-4 leukemia = test system: MOLT-4 leukemia
# SW-620 colon = test system: SW-620 colon
# SK-MEL-2 melanoma = test system: SK-MEL-2 melanoma
# SNB-75 CNS = test system: SNB-75 CNS
# OVCAR-4 ovarian = test system: OVCAR-4 ovarian
# T-47D breast = test system: T-47D breast
structure (smiles),measurement,setting,value
COc1ccc2c(c1)C(=O)/C(=C/c1ccc([N+](=O)[O-])o1)O2,GI50,HCT-15 colon,613 nM
same,TGI,HCT-15 colon,2140 nM
same,GI50,TK-10 renal,1050 nM
same,TGI,TK-10 renal,2590 nM
same,GI50,HOP-62 NSCLC,1820 nM
same,TGI,HOP-62 NSCLC,4090 nM
same,GI50,SF-268 CNS,1850 nM
same,TGI,SF-268 CNS,4020 nM
same,GI50,OVCAR-3 ovarian,878 nM
same,TGI,OVCAR-3 ovarian,2220 nM
same,GI50,KM12 colon,1650 nM
same,TGI,KM12 colon,3110 nM
same,GI50,UO-31 renal,796 nM
same,TGI,UO-31 renal,2460 nM
same,GI50,IGROV1 ovarian,1020 nM
same,TGI,IGROV1 ovarian,3580 nM
same,GI50,A498 renal,1640 nM
same,TGI,A498 renal,4120 nM
same,GI50,SF-295 CNS,2350 nM
same,TGI,SF-295 CNS,9890 nM
same,GI50,MALME-3M melanoma,1610 nM
same,TGI,MALME-3M melanoma,3480 nM
same,GI50,MDA-MB-231 breast,1410 nM
same,TGI,MDA-MB-231 breast,3170 nM
same,GI50,COLO 205 colon,1300 nM
same,TGI,COLO 205 colon,2740 nM
same,GI50,MDA-MB-435,1390 nM
same,TGI,MDA-MB-435,3020 nM
same,GI50,SN12C renal,1910 nM
same,TGI,SN12C renal,4360 nM
same,GI50,CCRF-CEM leukemia,513 nM
same,TGI,CCRF-CEM leukemia,2190 nM
same,GI50,HOP-92 NSCLC,793 nM
same,TGI,HOP-92 NSCLC,2790 nM
same,GI50,SR leukemia,198 nM
same,TGI,SR leukemia,1230 nM
same,GI50,MCF7 breast,716 nM
same,TGI,MCF7 breast,2840 nM
same,GI50,ACHN renal,758 nM
same,TGI,ACHN renal,2020 nM
same,GI50,OVCAR-8 ovarian,1210 nM
same,TGI,OVCAR-8 ovarian,5400 nM
same,GI50,HCC-2998 colon,1890 nM
same,TGI,HCC-2998 colon,3740 nM
same,GI50,LOX IMVI melanoma,1400 nM
same,TGI,LOX IMVI melanoma,2860 nM
same,GI50,RXF 393 renal,1390 nM
same,TGI,RXF 393 renal,3050 nM
same,GI50,NCI-H460 lung,1750 nM
same,TGI,NCI-H460 lung,3830 nM
same,GI50,NCI/ADR-RES ovarian,3110 nM
same,TGI,NCI/ADR-RES ovarian,> 38900 nM
same,GI50,SF-539 CNS,1760 nM
same,TGI,SF-539 CNS,3910 nM
same,GI50,NCI-H522 lung,527 nM
same,TGI,NCI-H522 lung,1050 nM
same,GI50,UACC-62 melanoma,1360 nM
same,TGI,UACC-62 melanoma,2910 nM
same,GI50,RPMI-8226 leukemia,2010 nM
same,TGI,RPMI-8226 leukemia,6200 nM
same,GI50,OVCAR-5 ovarian,1800 nM
same,TGI,OVCAR-5 ovarian,3640 nM
same,GI50,NCI-H23 lung,1800 nM
same,TGI,NCI-H23 lung,4000 nM
same,GI50,BT-549 breast,1530 nM
same,TGI,BT-549 breast,3440 nM
same,GI50,M14 melanoma,1640 nM
same,TGI,M14 melanoma,3320 nM
same,GI50,786-0 renal,1790 nM
same,TGI,786-0 renal,3430 nM
same,GI50,HL-60(TB) leukemia,1740 nM
same,TGI,HL-60(TB) leukemia,4190 nM
same,GI50,SK-MEL-28 melanoma,1690 nM
same,TGI,SK-MEL-28 melanoma,3220 nM
same,GI50,SK-MEL-5 melanoma,1580 nM
same,TGI,SK-MEL-5 melanoma,3020 nM
same,GI50,HS 578T breast,2580 nM
same,TGI,HS 578T breast,> 26800 nM
same,GI50,SNB-19 CNS,3090 nM
same,GI50,A549 NSCLC,2680 nM
same,TGI,A549 NSCLC,> 22800 nM
same,GI50,NCI-H226 lung,1780 nM
same,TGI,NCI-H226 lung,5830 nM
same,GI50,HCT-116 colon,495 nM
same,TGI,HCT-116 colon,1220 nM
same,GI50,HT29 colon,954 nM
same,TGI,HT29 colon,2740 nM
same,GI50,PC-3 prostate,1910 nM
same,TGI,PC-3 prostate,8270 nM
same,GI50,U251 CNS,1640 nM
same,TGI,U251 CNS,3430 nM
same,GI50,CAKI-1 renal,432 nM
same,TGI,CAKI-1 renal,1490 nM
same,GI50,SK-OV-3 ovarian,5360 nM
same,TGI,SK-OV-3 ovarian,> 29900 nM
same,GI50,UACC-257 melanoma,1610 nM
same,TGI,UACC-257 melanoma,3450 nM
same,GI50,DU-145 prostate,2050 nM
same,TGI,DU-145 prostate,3970 nM
same,GI50,MOLT-4 leukemia,1670 nM
same,TGI,MOLT-4 leukemia,3970 nM
same,GI50,SW-620 colon,459 nM
same,TGI,SW-620 colon,1220 nM
same,GI50,SK-MEL-2 melanoma,1830 nM
same,TGI,SK-MEL-2 melanoma,3830 nM
same,GI50,SNB-75 CNS,1730 nM
same,TGI,SNB-75 CNS,5690 nM
same,GI50,OVCAR-4 ovarian,810 nM
same,TGI,OVCAR-4 ovarian,2060 nM
same,GI50,T-47D breast,770 nM
same,TGI,T-47D breast,2590 nM
